In experiment [1] the test system is T-47D cells. Kind of experiment: Uptake of DHEAS by T-47D cells (time course, concentration dependence). As to conditions: 10.3 nM to 100 μM, 37° C., 10 min, saturable uptake. In kind it is cell-based, human. Here is the method: The uptake of DHEAS at various concentrations, ranging from 10.3 nM to 100 μM, was measured at 37° C. for 10 min. The saturable uptake was obtained after subtraction of the uptake in the presence of excess of unlabeled DHEAS (5 mM) and used for the evaluation of kinetic constants by nonlinear least-squares analysis. […] Each value represents the mean±S.E.M. (n=4). When the error bars are not shown, they are smaller than the symbols.
Transport experiments were performed as described previously (Tamai et al., 2001). After cultivation of T-47D cells in 15 cm dishes, the cells were harvested and suspended in the transport medium containing 125 mM NaCl, 4.8 mM KCl, 5.6 mM D-glucose, 1.2 mM CaCl2, 1.2 mM KH2PO4, 1.2 mM MgSO4 and 25 mM Hepes, adjusted to pH 7.4. […] Then, the associated radioactivity was measured by means of a liquid scintillation counter using Clearsol-1 (Nacalai tesque) as a liquid scintillation fluid.
Cellular protein content was determined according to the method of Bradford by using a BioRad protein assay kit (Hercules) with bovine serum albumin as the standard (Bradford, 1976). […] All data were expressed as means±S.E.M., and statistical analysis was performed by the use of Student's t test with P<0.05 as the criterion of significance. […]

The subject of experiment [2] is T-47D cells. The experiment can be described thus: Inhibition of [3H] estrone-3-sulfate uptake by T-47D cells. In kind it is cell-based, human. The conditions noted are these: mean±S.E.M. (n=4). How it is done:
The cell suspension and a solution containing a radiolabeled test compound in the transport medium were separately incubated at 37° C. for 20 min, then transport was initiated by mixing them. […] Each cell pellet was solubilized in 3 N KOH, and neutralized with HCl. Then, the associated radioactivity was measured by means of a liquid scintillation counter using Clearsol-1 (Nacalai tesque) as a liquid scintillation fluid.
To characterize the substrate specificity of the transport system, the inhibitory effects of hormones, their conjugated metabolites, and various organic compounds on [^3H] estrone-3-sulfate uptake by T-47D cells were examined. The results are shown in (Table 1). In Table 1, values in control (%) are indicated as the ratio in comparison to uptake amount of estrone-3-sulfate in control which was set at 100%. Each value represents the mean±S.E.M. (n=4), and *P<0.05 indicates comparison to control (Student's test).

On to Dehydroepiandrosterone sulfate, for which, in experiment [1], the Km turned out to be 62.5 ± 21.1 µM. The “Vmax of DHEAS uptake” value in experiment [1] is recorded as 1893±315.7 pmol/mg protein/10 min. For the same substance, the “[3H] estrone-3-sulfate uptake, Control (%)” value in experiment [2] (inhibitor 5 μM) is recorded as 66.4 ± 5.7 * %; in experiment [2] (inhibitor 50 μM) it was 27.0 ± 7.6 * %; in experiment [2] (inhibitor 50 μM, listed as DHEAS), 44.8%.

These data come from US20070148703A1, “Method of screening remedy for breast cancer” (Genomembrane, Inc., priority 2003, published 2007).
